Results reported in US7745443B2 (Sanofi-Aventis Deutschland GmbH, priority 2002, dated 2010).

Molecular target: binding of human von Willebrand factor to europium (Eu)-chelate-labeled chimeric GPIb-Fc protein (Homo sapiens, UniProt P04275+P07359)
Assay: Von Willebrand Factor-GPIb Binding Assay (Eu based, botrocetin-induced)
Settings: botrocetin-induced binding of Eu-chelate-labeled chimeric GPIb-Fc to immobilized human vWF; IC50 values as specified in the examples
Protocol: Activity of compounds of the formula I was shown by an Eu based binding assay in which the binding of human von Willebrand factor to an europium (Eu)-chelate-labeled chimeric GPIb-Fc protein was induced by botrocetin. The preparation of the Eu-chelate-labeled chimeric GPIb-Fc protein is described in detail in a patent application (Fukuchi et al., EP1074564).
A TBS (Tris buffered saline, 20 mM Tris-HCl (pH 7.4) and 0.15 M NaCl) (50 microl) containing human von Willebrand factor (2.5 microg/ml) was added to each well of 1 96-well plate, and the von Willebrand factor was immobilized as a solid phase overnight at 4 dec. Each well was washed once with TBS (150 microl) and blocked with TBS containing 5% BSA (bovine serum albumin) for about 3 hours. Each well of the plate was washed twice with TBS (150 microl), and then added with 25 microl of an assay buffer (Assay Buffer, 1244-106, produced by Wallac) with the compounds, further added with the assay buffer (25 microl) containing the europium (Eu)-chelate-labeled chimeric GPIb-Fc protein (100 ng/ml), labeled with Eu-N1-ITC (Eu-chelate of N^1-(p-isothiocyanatebenzyl)-diethlenetriamine-N^1,N^2,N^3,N^3-tetraacetic acid, 1244-302, produced by Wallac) and botrocetin (500 ng/ml), and left stand at room temperature for 2 hours. The preparation of the Eu-chelate-labeled chimeric GPIb-Fc protein is described in detail in a patent application (Fukuchi et al., EP1074564). Each well of the plate was washed 5 times with TBS (150 microl) containing 0.05% Tween-20, then added with 100 microl of a fluorescence enhancement buffer (Enhancement Solution, 1244-104, produced by Wallac), and shaken for 1 minute. Then, the amount of europium (Eu) was measured by using a 1420 ARVO multi-label counter (produced by Wallac, measurements time: 1 second).

binding of human von Willebrand factor to europium (Eu)-chelate-labeled chimeric GPIb-Fc protein, sequence (P04275 764-2813 limits assumed, change not shown): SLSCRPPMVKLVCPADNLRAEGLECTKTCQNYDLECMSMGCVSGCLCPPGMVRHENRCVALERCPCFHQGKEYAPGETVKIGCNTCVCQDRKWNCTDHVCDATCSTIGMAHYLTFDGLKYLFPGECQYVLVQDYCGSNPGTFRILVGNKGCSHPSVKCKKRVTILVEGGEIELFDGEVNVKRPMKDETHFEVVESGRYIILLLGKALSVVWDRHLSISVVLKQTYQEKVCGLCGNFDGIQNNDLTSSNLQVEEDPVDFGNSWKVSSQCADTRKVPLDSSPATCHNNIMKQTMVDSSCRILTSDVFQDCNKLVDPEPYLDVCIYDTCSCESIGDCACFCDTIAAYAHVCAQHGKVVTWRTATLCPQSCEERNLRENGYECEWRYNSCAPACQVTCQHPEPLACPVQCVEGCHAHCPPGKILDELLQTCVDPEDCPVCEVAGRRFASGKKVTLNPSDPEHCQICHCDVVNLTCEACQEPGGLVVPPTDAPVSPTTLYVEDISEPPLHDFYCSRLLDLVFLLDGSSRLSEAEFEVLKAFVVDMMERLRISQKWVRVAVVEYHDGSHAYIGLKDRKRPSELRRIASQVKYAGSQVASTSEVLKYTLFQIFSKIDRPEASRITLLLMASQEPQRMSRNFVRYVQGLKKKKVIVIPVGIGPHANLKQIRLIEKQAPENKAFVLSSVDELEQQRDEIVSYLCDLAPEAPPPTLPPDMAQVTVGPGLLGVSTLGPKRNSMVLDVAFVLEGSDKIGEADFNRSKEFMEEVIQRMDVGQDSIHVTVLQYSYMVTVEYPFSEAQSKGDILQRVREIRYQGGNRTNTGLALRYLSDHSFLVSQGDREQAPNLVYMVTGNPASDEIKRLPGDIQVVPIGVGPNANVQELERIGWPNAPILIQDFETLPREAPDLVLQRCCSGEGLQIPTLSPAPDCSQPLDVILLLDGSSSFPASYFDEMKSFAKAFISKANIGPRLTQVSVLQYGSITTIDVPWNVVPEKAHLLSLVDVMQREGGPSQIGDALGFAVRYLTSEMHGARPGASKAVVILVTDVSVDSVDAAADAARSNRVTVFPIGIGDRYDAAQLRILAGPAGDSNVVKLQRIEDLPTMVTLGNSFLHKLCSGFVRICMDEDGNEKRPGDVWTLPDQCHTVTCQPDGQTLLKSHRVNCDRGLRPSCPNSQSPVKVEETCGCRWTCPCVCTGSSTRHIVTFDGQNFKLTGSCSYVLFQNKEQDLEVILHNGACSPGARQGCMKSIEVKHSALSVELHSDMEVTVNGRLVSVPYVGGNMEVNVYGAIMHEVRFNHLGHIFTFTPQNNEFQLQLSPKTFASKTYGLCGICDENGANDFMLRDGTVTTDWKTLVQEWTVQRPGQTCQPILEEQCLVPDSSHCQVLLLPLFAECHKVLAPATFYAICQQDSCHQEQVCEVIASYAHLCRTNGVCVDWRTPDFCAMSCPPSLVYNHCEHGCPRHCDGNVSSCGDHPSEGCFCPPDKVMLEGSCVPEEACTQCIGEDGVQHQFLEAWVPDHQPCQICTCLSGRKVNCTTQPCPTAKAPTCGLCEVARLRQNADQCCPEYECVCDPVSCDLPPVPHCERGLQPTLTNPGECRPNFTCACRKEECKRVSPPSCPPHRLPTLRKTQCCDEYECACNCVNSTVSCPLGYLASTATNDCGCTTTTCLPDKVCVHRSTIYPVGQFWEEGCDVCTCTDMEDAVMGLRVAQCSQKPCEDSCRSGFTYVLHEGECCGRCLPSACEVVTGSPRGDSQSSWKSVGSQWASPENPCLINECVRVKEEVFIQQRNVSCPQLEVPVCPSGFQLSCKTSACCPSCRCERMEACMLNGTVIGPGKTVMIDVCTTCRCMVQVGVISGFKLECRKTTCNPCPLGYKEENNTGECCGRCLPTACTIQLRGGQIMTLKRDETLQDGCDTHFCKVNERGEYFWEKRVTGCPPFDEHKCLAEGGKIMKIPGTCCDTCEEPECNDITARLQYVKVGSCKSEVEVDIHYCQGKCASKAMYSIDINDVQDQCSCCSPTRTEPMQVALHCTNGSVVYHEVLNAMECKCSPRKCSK
binding of human von Willebrand factor to europium (Eu)-chelate-labeled chimeric GPIb-Fc protein, sequence (P07359 17-335 limits assumed, change not shown): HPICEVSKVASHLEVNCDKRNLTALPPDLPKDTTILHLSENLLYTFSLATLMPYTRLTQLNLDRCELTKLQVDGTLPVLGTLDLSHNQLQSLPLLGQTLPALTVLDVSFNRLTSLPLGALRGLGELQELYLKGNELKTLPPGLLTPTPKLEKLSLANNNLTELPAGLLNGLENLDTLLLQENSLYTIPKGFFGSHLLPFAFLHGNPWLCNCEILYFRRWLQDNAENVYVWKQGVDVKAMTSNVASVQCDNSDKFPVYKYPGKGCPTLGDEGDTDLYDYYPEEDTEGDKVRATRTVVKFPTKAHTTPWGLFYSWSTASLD

Compound | IC50 [µM]
4-Amino-N-(4-{[(2-methyl-1H-benzimidazol-5-yl)carbonyl]amino}phenyl)-2-methyl-6-quinolinecarboxamide [Example 28] | 9.56
Cc1cc(N)c2cc(NC(=O)c3cccc(Nc4cc(C)[n+](C)c(N)n4)c3)ccc2n1 [Example 2, 2-Amino-4-[3-(4-amino-2-methyl-quinolin-6-ylcarbamoyl)-phenylamino]-1,6-dimethyl-pyrimidin-1-ium] | 8.84
Cc1cc(N)c2cc(NC(=O)c3ccc(CNC(=O)c4cnccn4)cc3)ccc2n1 [Example 4, Pyrazine-2-carboxylic acid 4-(4-amino-2-methyl-quinolin-6-ylcarbamoyl)-benzylamide] | 75.5
Cc1cc(N)c2cc(NC(=O)c3ccc(CNC(=O)c4ccc(N)nc4)cc3)ccc2n1 [Example 5, 6-Amino-N-[4-(4-amino-2-methyl-quinolin-6-ylcarbamoyl)-benzyl]-nicotinamide] | 89.9
Cc1cc(N)c2cc(C(=O)Nc3ccc(Nc4cc(C)[n+](C)c(N)n4)cc3)ccc2n1 [Example 7, 2-Amino-4-[(4-{[(4-amino-2-methyl-6-quinolinyl)carbonyl]amino}phenyl)amino]-1,6-dimethylpyrimidin-1-ium] | 7.62
Cc1cc(N)c2cc(C(=O)Nc3cccc(Nc4cc(C)[n+](C)c(N)n4)c3)ccc2n1 [Example 8, 2-Amino-4-[(3-{[(4-amino-2-methyl-6-quinolinyl)carbonyl]amino}phenyl)amino]-1,6-dimethylpyrimidin-1-ium] | 82.6
Cc1cc(N)c2cc(C(=O)Nc3ccc(CNc4cc(C)[n+](C)c(N)n4)cc3)ccc2n1 [Example 9, 2-Amino-4-[(4-{[(4-amino-2-methyl-6-quinolinyl)carbonyl]amino}benzyl)amino]-1,6-dimethylpyrimidin-1-ium] | 20.1
Cc1cc(N)c2cc(C(=O)Nc3ccc(CNC(=O)c4ccnc(Cl)c4)cc3)ccc2n1 [Example 13, 4-Amino-N-[4-({[(2-chloro-4-pyridinyl)carbonyl]amino}methyl)phenyl]-2-methyl-6-quinolinecarboxamide] | 90.1
Cc1cc(N)c2cc(C(=O)Nc3ccc(CNC(=O)c4nccnc4N)cc3)ccc2n1 [Example 15, 4-Amino-N-[4-({[(3-amino-2-pyrazinyl)carbonyl]amino}methyl)phenyl]-2-methyl-6-quinolinecarboxamide] | 54.7
Cc1cc(N)c2cc(C(=O)Nc3ccc(NC(=O)c4cccnc4Cl)cc3)ccc2n1 [Example 18, 4-Amino-N-(4-{[(2-chloro-3-pyridinyl)carbonyl]amino}phenyl)-2-methyl-6-quinolinecarboxamide] | 52.6
Cc1cc(N)c2cc(C(=O)Nc3ccc(NC(=O)c4cncc(Br)c4)cc3)ccc2n1 [Example 19, 4-Amino-N-(4-{[(5-bromo-3-pyridinyl)carbonyl]amino}phenyl)-2-methyl-6-quinolinecarboxamide] | 20.9
Cc1cc(N)c2cc(C(=O)Nc3ccc(NC(=O)c4nccnc4N)cc3)ccc2n1 [Example 20, 4-Amino-N-(4-{[(2-amino-3-pyrazinyl)carbonyl]amino}phenyl)-2-methyl-6-quinolinecarboxamide] | 4.41
Cc1cc(N)c2cc(C(=O)Nc3ccc(NC(=O)c4ccc(N)nc4)cc3)ccc2n1 [Example 22, 4-Amino-N-(4-{[(2-amino-5-pyridinyl)carbonyl]amino}phenyl)-2-methyl-6-quinolinecarboxamide] | 11.1
Cc1cc(N)c2cc(C(=O)Nc3ccc(NC(=O)c4ccc(O)nc4)cc3)ccc2n1 [Example 23, 4-Amino-N-(4-{[(2-hydroxy-5-pyridinyl)carbonyl]amino}phenyl)-2-methyl-6-quinolinecarboxamide] | 42.1
Cc1cc(N)c2cc(C(=O)Nc3ccc(NC(=O)c4cnccn4)cc3)ccc2n1 [Example 24, 4-Amino-N-(4-{[(2-pyrazinyl)carbonyl]amino}phenyl)-2-methyl-6-quinolinecarboxamide] | 15.2
Cc1cc(N)c2cc(C(=O)Nc3ccc(NC(=O)c4cnc(Cl)c(Cl)c4)cc3)ccc2n1 [Example 25, 4-Amino-N-(4-{[(2,3-dichloro-5-pyridinyl)carbonyl]amino}phenyl)-2-methyl-6-quinolinecarboxamide] | 22.9
Cc1cc(N)c2cc(C(=O)Nc3ccc(NC(=O)c4ccc(Cl)c(S(N)(=O)=O)c4)cc3)ccc2n1 [Example 26, 4-Amino-N-(4-{[3-(aminosulfonyl)-4-chlorobenzoyl]amino}phenyl)-2-methyl-6-quinolinecarboxamide] | 32.8
Cc1cc(N)c2cc(C(=O)Nc3ccc(NC(=O)c4ccc(OC5CCNCC5)cc4)cc3)ccc2n1 [Example 29, 4-Amino-N-(4-{[4-(4-piperidinyloxy)benzoyl]amino}phenyl)-2-methyl-6-quinolinecarboxamide] | 19.8
Cc1cc(N)c2cc(C(=O)Nc3ccc(NC(=O)c4ccc5[nH]c(N)nc5c4)cc3)ccc2n1 [Example 30, 4-Amino-N-(4-{[(2-amino-1H-benzimidazol-5-yl)carbonyl]amino}phenyl)-2-methyl-6-quinolinecarboxamide] | 4.03
Cc1cc(N)c2cc(C(=O)Nc3ccc(NC(=O)c4ccc5nc(N)sc5c4)cc3)ccc2n1 [Example 31] | 2.9
Cc1cc(N)c2cc(C(=O)Nc3ccc(NC(=O)c4ccc5[nH]cnc5c4)cc3)ccc2n1 [Example 32, 4-amino-N-{4-[(1H-benzimidazol-5-ylcarbonyl)amino]phenyl}-2-methyl-6-quinolinecarboxamide] | 7.5

Further lines, results first:

IC50 [µM] | Compound
24.3 | Cc1cc(NCCC(=O)Nc2ccc3nc(C)cc(N)c3c2)nc(N)n1 [Example 1, 3-(2-Amino-6-methyl-pyrimidin-4-ylamino)-N-(4-amino-2-methyl-quinolin-6-yl)-propionamide]
92.1 | Cc1cc(N)c2cc(NC(=O)c3ccc(CNc4cc(C)[n+](C)c(N)n4)cc3)ccc2n1 [Example 3, 2-Amino-4-[4-(4-amino-2-methyl-quinolin-6-ylcarbamoyl)-benzylamino]-1,6-dimethyl-pyrimidin-1-ium]
47.9 | Cc1cc(N)c2cc(NC(=O)c3ccc(CNC(=O)c4cncc(N5CCCC5)n4)cc3)ccc2n1 [Example 6, 6-Pyrrolidin-1-yl-pyrazine-2-carboxylic acid 4-(4-amino-2-methyl-quinolin-6-ylcarbamoyl)-benzylamide]
68.6 | Cc1cc(NCc2ccc(NC(=O)c3ccc4nc(C)cc(N)c4c3)cc2)nc(N)n1 [Example 10, 2-Amino-4-[(4-{[(4-amino-2-methyl-6-quinolinyl)carbonyl]amino}benzyl)amino]-6-methylpyrimidine]
42.9 | Cc1cc(N)c2cc(C(=O)Nc3ccc(CNC(=O)c4ccc(Cl)nc4)cc3)ccc2n1 [Example 11, 4-Amino-N-[4-({[(6-chloro-3-pyridinyl)carbonyl]amino}methyl)phenyl]-2-methyl-6-quinolinecarboxamide]
58.4 | Cc1cc(N)c2cc(C(=O)Nc3ccc(CNC(=O)c4ccccn4)cc3)ccc2n1 [Example 12, 4-Amino-2-methyl-N-(4-{[(2-pyridinylcarbonyl)amino]methyl}phenyl)-6-quinolinecarboxamide]
28.8 | Cc1cc(N)c2cc(C(=O)Nc3ccc(CNC(=O)c4cncc(Br)c4)cc3)ccc2n1 [Example 14, 4-Amino-N-[4-({[(3-bromo-5-pyridinyl)carbonyl]amino}methyl)phenyl]-2-methyl-6-quinolinecarboxamide]
43.2 | Cc1cc(N)c2cc(C(=O)Nc3ccc(NC(=O)c4ccccn4)cc3)ccc2n1 [Example 16, 4-Amino-N-{4-[(2-pyridinylcarbonyl)amino]phenyl}-2-methyl-6-quinolinecarboxamide]
15 | Cc1cc(N)c2cc(C(=O)Nc3ccc(NC(=O)c4cccnc4)cc3)ccc2n1 [Example 17, 4-Amino-N-{4-[(3-pyridinylcarbonyl)amino]phenyl}-2-methyl-6-quinolinecarboxamide]
34.4 | Cc1cc(N)c2cc(C(=O)Nc3ccc(NC(=O)c4cccnc4N)cc3)ccc2n1 [Example 21, 4-Amino-N-(4-{[(2-amino-3-pyridinyl)carbonyl]amino}phenyl)-2-methyl-6-quinolinecarboxamide]
46.5 | Cc1cc(N)c2cc(C(=O)Nc3ccc(NC(=O)c4cccc(N(C)C)c4)cc3)ccc2n1 [Example 27, 4-Amino-N-{4-[(3-dimethylaminobenzoyl)amino]phenyl}-2-methyl-6-quinolinecarboxamide]
1.7 | Cc1cc(N)c2cc(C(=O)Nc3ccc(NC(=O)c4ccc5nc(N)ccc5c4)cc3)ccc2n1 [Example 33, 4-Amino-N-(4-{[(2-amino-6-quinolinyl)carbonyl]amino}phenyl)-2-methyl-6-quinolinecarboxamide]
3.61 | COc1cc(NC(=O)c2ccc3nc(N)ccc3c2)ccc1NC(=O)c1ccc2nc(C)cc(N)c2c1 [Example 34, 4-Amino-N-(4-{[(2-amino-6-quinolinyl)carbonyl]amino}-2-methoxyphenyl)-2-methyl-6-quinolinecarboxamide]
